The numbers were not newly measured in patent US20070148722A1, “Method for determining the concentration of thrombin inhibitors” (priority 1999, published 2007), which cites them from elsewhere.

This data set has as its target meizothrombin (Homo sapiens, UniProt P00734). To be noted: theoretical background statement; affinity to atypical intermediate meizothrombin.

Take hirudin: the Ki was over 0.1 nM.
